33 molecules from patent US11655246B2, “Aminothiazole compounds as inhibitors of CTPS1” (STEP PHARMA S.A.S., priority 2017, dated 2023) can be followed below.

Where two headings read alike, the source gives them in different places. Bounds are passed on as bounds.

The assay deals with T1, human CTPS1 (Homo sapiens, UniProt P17812).
T1 construct: purchased Proteros biostructures GmbH
T1 sequence (P17812 1-591): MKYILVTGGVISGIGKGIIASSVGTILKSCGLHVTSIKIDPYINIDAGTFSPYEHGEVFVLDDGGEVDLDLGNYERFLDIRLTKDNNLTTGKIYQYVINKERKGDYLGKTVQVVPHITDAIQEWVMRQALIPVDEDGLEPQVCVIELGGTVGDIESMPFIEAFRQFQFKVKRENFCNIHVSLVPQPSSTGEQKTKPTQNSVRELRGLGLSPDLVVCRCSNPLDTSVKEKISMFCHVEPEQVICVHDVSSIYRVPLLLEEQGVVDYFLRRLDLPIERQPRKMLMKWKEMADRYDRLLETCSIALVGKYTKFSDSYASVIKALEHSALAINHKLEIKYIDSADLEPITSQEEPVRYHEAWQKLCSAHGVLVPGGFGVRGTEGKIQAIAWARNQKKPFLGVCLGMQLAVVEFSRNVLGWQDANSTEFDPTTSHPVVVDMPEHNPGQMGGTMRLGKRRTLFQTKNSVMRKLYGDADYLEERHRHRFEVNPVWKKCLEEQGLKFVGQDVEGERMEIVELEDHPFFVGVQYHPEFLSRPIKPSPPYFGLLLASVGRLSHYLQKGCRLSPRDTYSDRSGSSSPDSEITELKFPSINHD
The assay is described as follows: Human CTPS1 enzyme inhibition (ADP-Glo Max assay). It counts as biochemical. The note with it: read-out: CTPS1 (Human CTPS1 Enzyme Inhibition data grouped by potency range). How it is done:
The enzyme inhibitory activities of compounds invented against the target of interest were determined using the ADP-Glo™ Max assay (Promega, UK). Assays for human CTPS1 were performed in 1× assay buffer containing 50 mM Tris, 10 mM MgCl2, 0.01% Tween-20, pH to 8.0 accordingly. Finally, immediately before use, L-cysteine was added to the 1× assay buffer to a final concentration of 2 mM. All reagents are from Sigma-Aldrich unless specified otherwise.
3× human CTPS1 protein was prepared in 1× assay buffer to the final working protein concentration required for the reaction. A 2 uL volume per well of 3× human CTPS1 protein was mixed with 2 uL per well of 3× test compound (compound prepared in 1× assay buffer to an appropriate final 3× compound concentration respective to the concentration response curve designed for the compounds under test) for 10 minutes at 25° C. […] ADP-Glo™ Max reagent was added for 60 minutes (6 uL per well) and subsequently ADP-Glo™ Max development reagent was added for 60 minutes (12 uL per well) prior to signal detection in a microplate reader (EnVision® Multilabel Reader, Perkin Elmer). Following each reagent addition over the course of the assay, assay plates were pulse centrifuged for 30 seconds at 500 rpm.
In all cases, the enzyme converts ATP to ADP and the ADP-Glo™ Max reagent subsequently depletes any remaining endogenous ATP in the reaction system. The ADP-Glo™ Max detection reagent converts the ADP that has been enzymatically produced back into ATP and using ATP as a substrate together with luciferin for the enzyme luciferase, light is generated which produces a detectable luminescence. […] The percentage inhibition produced by each concentration of compound was calculated using the equation shown below: […]
(In general: In ADP-Glo the light output rises with the ADP produced.)

The mark [1] stands for this setting: Table 18, additional potency data, 25° C.

`CCS(=O)(=O)Nc1nc(C(C)(C)C(=O)Nc2ccc(-c3cncc(F)c3)cc2)cs1` [T385, 2-(2-(ethylsulfonamido)thiazol-4-yl)-N-(4-(5-fluoropyridin-3-yl)phenyl)-2-methylpropanamide]: the IC50 under setting [1] is < 0.1 µM.

For `CCC(C(=O)Nc1ccc(-c2cncc(F)c2)cc1)c1csc(NS(=O)(=O)C2CC2)n1` (stereo not drawn) [T90], the IC50 (Table 17, 25° C.) was < 0.1 µM.

For the molecule `CCC(C(=O)Nc1ccc(-c2cncc(OCC(F)(F)F)n2)cc1)c1csc(NS(=O)(=O)C2CC2)n1` (single isomer, unassigned) [T222], where the note is “Table 17, 25° C.”, the IC50 lay in the range of 0.1 to 1 µM.

`CCCOc1cncc(-c2ccc(NC(=O)C(CC)c3csc(NS(=O)(=O)C4CC4)n3)nc2)n1` (stereo not drawn) [T173]: where the note is “Table 17, 25° C.”, the IC50 is < 0.1 µM.

As to `CCOc1cncc(-c2ccc(NC(=O)C(CC)c3csc(NS(=O)(=O)C4CC4)n3)cc2)n1` (single isomer, unassigned) [T204], where the note is “Table 17, 25° C.”, the IC50 was < 0.1 µM.

Consider `CCOc1cncc(-c2ccc(NC(=O)C(CC)c3csc(NS(=O)(=O)C4CC4)n3)c(F)c2)c1` (stereo not drawn) [T199], for which the IC50 (Table 17, 25° C.) is < 0.1 µM.

On to `CCC(C(=O)Nc1ccc(-c2cncc(OCC(F)(F)F)n2)cc1F)c1csc(NS(=O)(=O)C2CC2)n1` (stereo not drawn) [T207], for which the IC50 (Table 17, 25° C.) is < 0.1 µM.

`CCS(=O)(=O)Nc1nc(C(C)(C)C(=O)Nc2ccc(-c3cncc(OC(C)C)n3)cc2)cs1` [T388, 2-(2-(ethylsulfonamido)thiazol-4-yl)-N-(4-(6-isopropoxypyrazin-2-yl)phenyl)-2-methylpropanamide]: the IC50 under setting [1] was < 0.1 µM.

For `CCOc1cncc(-c2ccc(NC(=O)C(C)(C)c3csc(NS(=O)(=O)C4CC4)n3)nc2)c1` [T337, 2-(2-(cyclopropanesulfonamido)thiazol-4-yl)-N-(5′-ethoxy-[3,3′-bipyridin]-6-yl)-2-methylpropanamide], the IC50 under setting [1] was < 0.1 µM.

For `CC(C)Oc1cncc(-c2ccc(NC(=O)C(C)(C)c3csc(NS(=O)(=O)C4CC4)n3)c(F)c2)n1` [T357, 2-(2-(cyclopropanesulfonamido)thiazol-4-yl)-N-(2-fluoro-4-(6-isopropoxypyrazin-2-yl)phenyl)-2-methylpropanamide], the IC50 under setting [1] is < 0.1 µM.

With `CCC(C(=O)Nc1ccc(-c2cncc(Cl)c2)cc1F)c1csc(NS(=O)(=O)C2CC2)n1` (stereo not drawn) [T203], under “Table 17, 25° C.”, the IC50 is < 0.1 µM.

Take `Cc1sc(NS(=O)(=O)C2CC2)nc1C(C)(C)C(=O)Nc1ccc(-c2cncc(C(F)(F)F)c2)cc1F` [T350, 2-(2-(cyclopropanesulfonamido)-5-methylthiazol-4-yl)-N-(2-fluoro-4-(5-(trifluoromethyl)pyridin-3-yl)phenyl)-2-methylpropanamide]: under setting [1], the IC50 was 0.1 to 1 µM.

Regarding `CCc1cncc(-c2ccc(NC(=O)C(C)(C)c3csc(NS(=O)(=O)C4CC4)n3)c(F)c2)n1` [T356, 2-(2-(cyclopropanesulfonamido)thiazol-4-yl)-N-(4-(6-ethylpyrazin-2-yl)-2-fluorophenyl)-2-methylpropanamide], under setting [1], the IC50 is < 0.1 µM.

For the molecule `CCOc1cncc(-c2ccc(NC(=O)C(c3csc(NS(=O)(=O)C4CC4)n3)N(C)C)c(F)c2)n1` (stereo not drawn) [T421, 2-(2-(Cyclopropanesulfonamido)thiazol-4-yl)-2-(dimethylamino)-N-(4-(6-ethoxypyrazin-2-yl)-2-fluorophenyl)acetamide], the IC50 under setting [1] is < 0.1 µM.

For the molecule `CCOc1cncc(-c2ccc(NC(=O)C(CC)c3csc(NS(=O)(=O)C4CC4)n3)c(F)c2)n1` (single isomer, unassigned) [T412, 2-(2-(cyclopropanesulfonamido)thiazol-4-yl)-N-(4-(6-ethoxypyrazin-2-yl)-2-fluorophenyl)butanamide], the IC50 under setting [1] was < 0.1 µM.

`CCOc1cncc(-c2ccc(NC(=O)C(NC(=O)OC(C)(C)C)c3csc(NS(=O)(=O)C4CC4)n3)cc2)n1` (stereo not drawn) [T407, tert-butyl (1-(2-(cyclopropanesulfonamido)thiazol-4-yl)-2-((4-(6-ethoxypyrazin-2-yl)phenyl)amino)-2-oxoethyl)carbamate]: the IC50 under setting [1] is < 0.1 µM.

As to `COC(C)(C)c1cncc(-c2ccc(NC(=O)C(C)(C)c3csc(NS(=O)(=O)C4CC4)n3)cc2)n1` [T375, 2-(2-(cyclopropanesulfonamido)thiazol-4-yl)-N-(4-(6-(2-methoxypropan-2-yl)pyrazin-2-yl)phenyl)-2-methylpropanamide], under setting [1], the IC50 lay within 0.1 to 1 µM.

Consider `CC(C)(C(=O)Nc1ccc(-c2cncc(Cl)c2)cc1)c1csc(NS(C)(=O)=O)n1` [T393, N-(4-(5-chloropyridin-3-yl)phenyl)-2-methyl-2-(2-(methylsulfonamido)thiazol-4-yl)propanamide], for which the IC50 under setting [1] is 0.1 to 1 µM.

As for `CC(C)(C(=O)Nc1ccc(-c2cncnc2)cc1)c1csc(NS(=O)(=O)C2CC2)n1` [T18, 2-(2-(cyclopropanesulfonamido)thiazol-4-yl)-2-methyl-N-(4-(pyrimidin-5-yl)phenyl)propanamide], the IC50 (Table 17, 25° C.) was < 0.1 µM.

Take `Cc1sc(NS(=O)(=O)C2CC2)nc1C(C)(C)C(=O)Nc1ccc(-c2cncc(C(F)(F)F)n2)cn1` [T340, 2-(2-(cyclopropanesulfonamido)-5-methylthiazol-4-yl)-2-methyl-N-(5-(6-(trifluoromethyl)pyrazin-2-yl)pyridin-2-yl)propanamide]: the IC50 under setting [1] is 0.1 to 1 µM.

Consider `CCC(C(=O)N(C)c1ccc(-c2cccnc2)cc1)c1csc(NS(=O)(=O)C2CC2)n1` (stereo not drawn) [T315], for which the IC50 (Table 17, 25° C.) lay within 0.1 to 1 µM.

With `CCOc1cncc(-c2ccc(NC(=O)C(CC)c3csc(NS(=O)(=O)C4CC4)n3)c(Cl)c2)n1` (stereo not drawn) [T439], the IC50 under setting [1] is < 0.1 µM.

On to `CCOc1cncc(-c2ccc(NC(=O)C(CC)c3csc(NS(=O)(=O)C4CC4)n3)nc2)n1` (stereo not drawn) [T177], for which, for the setting “Table 17, 25° C.”, the IC50 is < 0.1 µM.

On to `CCC(C(=O)Nc1ccc(-c2cncc(C(C)(C)OC)n2)cn1)c1csc(NS(=O)(=O)C2CC2)n1` (stereo not drawn) [T402, 2-(2-(cyclopropanesulfonamido)thiazol-4-yl)-N-(5-(6-(2-methoxypropan-2-yl)pyrazin-2-yl)pyridin-2-yl)butanamide], for which, under setting [1], the IC50 was in the range of 1 to 10 µM.

Regarding `CCOc1cncc(-c2ccc(NC(=O)C(C)(C)c3csc(NS(=O)(=O)C4CC4)n3)c(C(C)C)c2)n1` [T362, 2-(2-(cyclopropanesulfonamido)thiazol-4-yl)-N-(4-(6-ethoxypyrazin-2-yl)-2-isopropylphenyl)-2-methylpropanamide], the IC50 under setting [1] was < 0.1 µM.

Turning to `CC(C)(C(=O)Nc1ccc(-c2cccnc2)c(Cl)c1)c1csc(NS(=O)(=O)C2CC2)n1` [T153], for the setting “Table 17, 25° C.”, the IC50 was in the range of 0.1 to 1 µM.

Consider `CCC(C(=O)Nc1ccc(-c2cncc(C(C)C)n2)cn1)c1csc(NS(=O)(=O)C2CC2)n1` (stereo not drawn) [T401, 2-(2-(cyclopropanesulfonamido)thiazol-4-yl)-N-(5-(6-isopropylpyrazin-2-yl)pyridin-2-yl)butanamide], for which the IC50 under setting [1] fell in the range of 0.1 to 1 µM.

With `COC(C(=O)Nc1ccc(-c2cncc(C(F)(F)F)n2)cc1F)c1csc(NS(=O)(=O)C2CC2)n1` (stereo not drawn) [T408, 2-(2-(cyclopropanesulfonamido)thiazol-4-yl)-N-(2-fluoro-4-(6-(trifluoromethyl)pyrazin-2-yl)phenyl)-2-methoxyacetamide], the IC50 under setting [1] was < 0.1 µM.

On to `CC(C)(C(=O)Nc1ccc(-c2cncc(C(F)(F)F)n2)cn1)c1csc(NS(=O)(=O)CC2CC2)n1` [T396, 2-(2-((cyclopropylmethyl)sulfonamido)thiazol-4-yl)-2-methyl-N-(5-(6-(trifluoromethyl)pyrazin-2-yl)pyridin-2-yl)propanamide], for which, under setting [1], the IC50 was in the range of 0.1 to 1 µM.

With `COCCC(C(=O)Nc1ccc(-c2cnccn2)cn1)c1csc(NS(=O)(=O)C2CC2)n1` (stereo not drawn) [T170], for the setting “Table 17, 25° C.”, the IC50 lay within 0.1 to 1 µM.

In the case of `CCOc1cncc(-c2ccc(NC(=O)C(CCO)c3csc(NS(=O)(=O)C4CC4)n3)cc2)n1` (stereo not drawn) [T329, 2-(2-(cyclopropanesulfonamido)thiazol-4-yl)-N-(4-(6-ethoxypyrazin-2-yl)phenyl)-4-hydroxybutanamide], under setting [1], the IC50 is < 0.1 µM.

With `CCC(C(=O)Nc1ccc(-c2cncc(C(F)(F)F)n2)cc1F)c1csc(NS(=O)(=O)C2CC2)n1` (single isomer, unassigned) [T458], the IC50 under setting [1] is < 0.1 µM.

Take `COCCC(C(=O)Nc1ccc(-c2cncc(OC(C)C)n2)cc1F)c1csc(NS(=O)(=O)C2CC2)n1` (stereo not drawn) [T400, 2-(2-(cyclopropanesulfonamido)thiazol-4-yl)-N-(2-fluoro-4-(6-isopropoxypyrazin-2-yl)phenyl)-4-methoxybutanamide]: the IC50 under setting [1] is < 0.1 µM.
